19 compounds from US7022856B2, “Carboline derivatives” (LIlly Icos LLC., priority 2001, dated 2006) can be followed below.

The assay concerns the target T1, human recombinant PDE5 (Homo sapiens, UniProt O76074).
T1 construct: host or cells: Saccharomyces cerevisiae strain BJ2-54 (ATCC 74465)
In words: cGMP-PDE inhibition, one-step assay with human recombinant PDE5. The class given is biochemical. The settings on record: 0.15 μM 8-[H3]-cGMP, 30 min. The method, then: The compounds of structural formula (I) were tested for an ability to inhibit PDE5. The ability of a compound to inhibit PDE5 activity is related to the IC50 value for the compound, i.e., the concentration of inhibitor required for 50% inhibition of enzyme activity. The IC50 value for compounds pounds of structural formula (I) were determined using recombinant human PDE5.
Recombinant production of human PDE1B, PDE2, PDE4A, PDE4B, PDE4C, PDE4D, PDE5, and PDE7 was carried out similarly to that described in Example 7 of U.S. Pat. No. 5,702,936, incorporated herein by reference, except that the yeast transformation vector employed, which is derived from the basic ADH2 plasmid described in Price et al., Methods in Enzymology, 185, pp. 308–318 (1990), incorporated yeast ADH2 promoter and terminator sequences and the Saccharomyces cerevisiae host was the protease-deficient strain BJ2-54 deposited on Aug. 31, 1998 with the American Type Culture Collection, Manassas, Va., under accession number ATCC 74465. Transformed host cells were grown in 2×SC-leu medium, pH 6.2, with trace metals, and vitamins. After 24 hours, YEP medium-containing glycerol was added to a final concentration of 2×YET/3% glycerol. Approxiately 24 hr later, cells were harvested, washed, and stored at −70° C. […]
Cell pellets (29 g) were thawed on ice with an equal volume of Lysis Buffer (25 mM Tris HCl, pH 8, 5 mM MgCl2, 0.25 mM DTT, 1 mM benzamidine, and 10 μM ZnSO4). Cells were lysed in a Microfluidizer® (Microfluidics Corp.) using nitrogen at 20,000 psi. The lysate was centrifuged and filtered through 0.45 μm disposable filters. The filtrate was applied to a 150 mL column of Q SEPHAROSE® Fast-Flow (Pharmacia). The column was washed with 1.5 volumes of Buffer A (20 mM Bis-Tris Propane, pH 6.8, 1 mM MgCl2, 0.25 mM DTT, 10 μM ZnSO4) and eluted with a step gradient of 125 mM NaCl in Buffer A followed by a linear gradient of 125–1000 mM NaCl in Buffer A. Active fractions from the linear gradient were applied to a 180 mL hydroxyapatite column in Buffer B (20 mM Bis-Tris Propane (pH 6.8), 1 mM MgCl2, 0.25 mM DTT, 10 μM ZnSO4, and 250 mM KCl). After loading, the column was washed with 2 volumes of Buffer B and eluted with a linear gradient of 0–125 mM potassium phosphate in Buffer B. Active fractions were pooled, precipitated with 60% ammonium sulfate, and resuspended in Buffer C (20 mM Bis-Tris Propane, pH 6.8, 125 mM NaCl, 0.5 mM DTT, and 10 μM ZnSO4). The pool was applied to a 140 mL column of SEPHACRYL® S-300 HR and eluted with Buffer C. Active fractions were diluted to 50% glycerol and stored at −20° C.
cGMP-PDE activity of compounds of the present invention was measured using a one-step assay adapted from Wells et al., Biochim. Biophys. Acta, 384, 430 (1975). The reaction medium contained 50 mM Tris-HCl, pH 7.5, 5 mM magnesium acetate. 250 μg/ml 5′-Nucleotidase, 1 mM EGTA, and 0.15 μM 8-[H^3]-cGMP. Unless otherwise indicated, the enzyme used was a human recombinant PDE5 (ICOS Corp., Bothell, Wash.).
Compounds of the invention were dissolved in DMSO finally present at 2% in the assay.
The term IC50 denotes the concentration needed to halve the response being measured. Regarding `CNc1ccc(C(=O)N2CCc3c([nH]c4ccccc34)C2c2ccc3c(c2)OCO3)cc1` (stereo not drawn) [Example 5, 1-(1-Benzo[1,3]dioxol-5-yl-1,3,4,9-tetrahydro-β-carbolin-2-yl)-1-(4-methylaminophenyl)methanone], the concentration for half-maximal inhibition (IC50) was found to be 200 nM.

In the case of `CN(C)c1ccc(C(=O)N2CCc3c([nH]c4ccccc34)C2c2ccc3c(c2)OCO3)cc1` (stereo not drawn) [Example 6, 1-(1-Benzo[1,3]dioxol-5-yl-1,3,4,9-tetrahydro-β-carbolin-2-yl)-1-(4-dimethylaminophenyl)methanone], the IC50 is 670 nM.

Take `NC(=O)c1ccc(C(=O)N2CCc3c([nH]c4ccccc34)C2c2ccc3c(c2)OCO3)cc1` (stereo not drawn) [Example 7, 4-[1-(1-Benzo[1,3]dioxol-5-yl-1,3,4,9-tetrahydro-β-carbolin-2-yl)methanoyl]benzamide]: the IC50 was 550 nM.

As for `O=C(C#Cc1ccccc1)N1CCc2c([nH]c3ccccc23)C1c1ccc2c(c1)OCO2` (stereo not drawn) [Example 8, 1-(1-Benzo[1,3]dioxol-5-yl-1,3,4,9-tetrahydro-β-carbolin-2-yl)-3-phenylpropynone], the IC50 stood at 190 nM.

With `Nc1ccccc1CCC(=O)N1CCc2c([nH]c3ccccc23)C1c1ccc2c(c1)OCO2` (stereo not drawn) [Example 9, 3-(2-Aminophenyl)-1-(1-benzo[1,3]dioxol-5-yl-1,3,4,9-tetrahydro-β-carbolin-2-yl)propan-1-one], the IC50 amounted to 440 nM.

For `O=C(Cc1ccccc1)Nc1ccc(C(=O)N2CCc3c([nH]c4ccccc34)C2c2ccc3c(c2)OCO3)cc1` (stereo not drawn) [Example 10, N-{4-[1-(1-Benzo[1,3]dioxol-5-yl-1,3,4,9-tetrahydro-β-carbolin-2-yl)methanoyl]phenyl}-2-phenylacetamide], the IC50 came to 760 nM.

As to `O=C(CCc1ccccc1)N1CCc2c([nH]c3ccccc23)C1c1ccc2c(c1)OCO2` (stereo not drawn) [Example 11, 1-(1-Benzo[1,3]dioxol-5-yl-1,3,4,9-tetrahydro-β-carbolin-2-yl)-3-phenylpropan-1-one], the IC50 came to 440 nM.

Consider `O=C(/C=C/c1cccc(CCC(=O)N2CCc3c([nH]c4ccccc34)C2c2ccc3c(c2)OCO3)c1)N1CCc2c([nH]c3ccccc23)C1c1ccc2c(c1)OCO2` (stereo not shown) [Example 13a], for which the IC50 was found to be 480 nM.

Take `O=C(/C=C/c1ccc(CCC(=O)N2CCc3c([nH]c4ccccc34)C2c2ccc3c(c2)OCO3)cc1)N1CCc2c([nH]c3ccccc23)C1c1ccc2c(c1)OCO2` (stereo not shown) [Example 13b]: the IC50 turned out to be 20 nM.

Turning to `O=C(c1ccc(-c2cccnc2)s1)N1CCc2c([nH]c3ccccc23)C1c1ccc2c(c1)OCO2` (stereo not shown) [Example 18], the IC50 stood at 110 nM.

Regarding `O=C(c1ccc(-c2ccccc2)s1)N1CCc2c([nH]c3ccccc23)C1c1ccc2c(c1)OCO2` (stereo not shown) [Example 19], the IC50 was determined as 250 nM.

For the compound `COc1ccc(C2c3[nH]c4ccccc4c3CCN2C(=O)c2cc3ccccc3s2)cc1Cl` (stereo not shown) [Example 20], the IC50 stood at 420 nM.

On to `O=C(c1cc2cc([N+](=O)[O-])ccc2s1)N1CCc2c([nH]c3ccccc23)C1c1ccc2c(c1)OCO2` (stereo not shown) [Example 21], for which the IC50 came to 130 nM.

Regarding `Nc1ccc2sc(C(=O)N3CCc4c([nH]c5ccccc45)C3c3ccc4c(c3)OCO4)cc2c1` (stereo not shown) [Example 22], the IC50 came to 80 nM.

`O=C(Cc1csc2ccccc12)N1CCc2c([nH]c3ccccc23)C1c1ccc2c(c1)OCO2` (stereo not drawn) [Example 23, 2-Benzo[b]thiophen-3-yl-1-(1-benzo[1,3]dioxol-5-yl-1,3,4,9-tetrahydro-β-carbolin-2-yl)ethanone]: the 50% inhibitory concentration (IC50) turned out to be 360 nM.

With `CC(=O)Nc1ccc2sc(C(=O)N3CCc4c([nH]c5ccccc45)C3c3ccc4c(c3)OCO4)cc2c1` (stereo not shown) [Example 24], the IC50 worked out at 30 nM.

On to `O=C(CCl)Nc1ccc2sc(C(=O)N3CCc4c([nH]c5ccccc45)C3c3ccc4c(c3)OCO4)cc2c1` (stereo not shown) [Example 25], for which the IC50 is 40 nM.

With `O=C(c1ccsc1)N1CCc2c([nH]c3ccccc23)C1c1ccc2c(c1)OCO2` (stereo not shown) [Example 26], the IC50 stood at 900 nM.

Turning to `O=C(CN1CCOCC1)Nc1ccc2sc(C(=O)N3CCc4c([nH]c5ccccc45)C3c3ccc4c(c3)OCO4)cc2c1` (stereo not shown) [Example 27], the IC50 was determined as 40 nM.
